In one assay the target is T1, MLKL (Homo sapiens, UniProt Q8NB16).
T1 sequence (Q8NB16 1-471): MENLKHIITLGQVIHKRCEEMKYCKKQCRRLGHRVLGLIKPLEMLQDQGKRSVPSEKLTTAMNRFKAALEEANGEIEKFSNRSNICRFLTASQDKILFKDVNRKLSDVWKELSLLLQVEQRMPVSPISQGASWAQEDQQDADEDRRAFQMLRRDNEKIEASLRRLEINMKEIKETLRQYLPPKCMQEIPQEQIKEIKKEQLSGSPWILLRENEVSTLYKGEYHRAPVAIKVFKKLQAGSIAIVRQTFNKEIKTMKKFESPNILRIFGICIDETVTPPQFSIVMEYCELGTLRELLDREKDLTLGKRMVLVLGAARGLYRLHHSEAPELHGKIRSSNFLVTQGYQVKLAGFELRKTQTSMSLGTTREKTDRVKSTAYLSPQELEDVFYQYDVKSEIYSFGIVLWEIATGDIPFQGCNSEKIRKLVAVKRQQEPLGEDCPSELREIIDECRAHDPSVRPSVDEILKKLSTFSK
Nature of the assay: Measurement of binding affinity with MLKL receptor (competitive binding assay, Kd). The arrangement: made in house; host or cells: HEK 293 cell line (T7 phage in E. coli BL21-derived host is also described). The method, then:
Measurement of Binding Affinity with MLKL Receptor (Competitive Binding Assay)
The binding affinity was evaluated by measuring the Kd value in the following method.
To prepare kinase-tagged T7 phage strains in an E. coli host derived from the BL21 strain, E. coli were grown to log-phase and infected with T7 phage and incubated with shaking at 32° C. until lysis. The lysates were centrifuged and filtered to remove cell debris. For kinase production, it was expressed in human embryonic kidney cell line (HEK 293 cell line), and subsequently tagged with DNA for qPCR detection.
The liganded beads were blocked with excess biotin and washed with blocking buffer (SeaBlock (Pierce), 1% BSA, 0.05% Tween 20, 1 mM DTT) to remove unbound ligand and to reduce non-specific binding. […] Test compounds were prepared as 111× stocks in 100% DMSO.
The compounds were then diluted directly into the assays such that the final concentration of DMSO was 0.9%. All reactions performed in polypropylene 384-well plate. Each was a final volume of 0.02 ml. […] The kinase concentration in the eluates was measured by qPCR.

In a further assay the test system is FADD−/− Jurkat cells. Nature of the assay: Necroptosis inhibition assay, TNF-α-induced necroptosis (CellTiter-Glo 2.0). Type of assay: cell-based, human. Particulars: TNF-α 15 ng/mL. Here is the method:
Necroptosis Inhibition Assay
Necroptosis inhibition was evaluated by the following method.
80 μL of FADD gene-defective human T lymphocyte cells (FADD−/− Jurkat cells) were equally distributed into each well at 5.0×10^5 cells/mL in a white 96-well plate with a transparent bottom. 20 μL of the medium containing test compound was treated in each well so that the final concentration of the compound was 0.1, 1, and 10 μM, and reacted at room temperature for 30 minutes. After the 30-minute reaction was over, TNF (tumor necrosis factor)-α was treated in the corresponding well so that the final concentration of TNF-α was 15 ng/mL in order to induce necroptosis. It was cultured in a 5% CO2, 37° C. incubator for 20 to 24 hours.
After incubation, the 96-well plate was left at room temperature for 30 minutes. After 30 minutes, Promega's CellTiter-Glo 2.0 reagent was diluted 1:3 with PBS and 100 μL of the diluted solution was added to each well to confirm cell viability by measuring the amount of ATP. After the treatment, the plate was shielded from light and incubated at room temperature for 2 minutes with orbital shaking, and then left at room temperature for 10 minutes without shaking. After measuring the luminescence at 0.5 seconds per well using a plate scanner, the cytotoxicity and necroptosis inhibition rate for the compound were calculated using the measured values.
A general note: ATP-based viability assays read luminescence as a measure of living cells.

Structures can show the parent of a compound that is named as a salt.

`Nc1ncc(-c2cnn(C3CCNCC3)c2)nc1C(=O)O[C@@H](C(=O)Nc1cccnc1)c1ccccc1` [TDH-468, (R)-2-oxo-1-phenyl-2-(pyridin-3-ylamino)ethyl 3-amino-6-(1-(piperidin-4-yl)-1H-pyrazol-4-yl)pyrazine-2-carboxylate hydrochloride]: the Kd on MLKL was determined as 1.7 nM. This lies in the single-digit nanomolar range. As for `Nc1ncc(-c2cnn(C3CCN(CCCCCCNc4cccc5c4C(=O)N(C4CCC(=O)NC4=O)C5=O)CC3)c2)nc1C(=O)O[C@@H](C(=O)Nc1ccc(F)cc1)c1ccccc1` (stereo partly drawn) [TDH-119, (R)-2-((4-fluorophenyl)amino)-2-oxo-1-phenylethyl 3-amino-6-(1-(1-(6-((2-(2,6-dioxopiperidin-3-yl)-1,3-dioxoisoindolin-4-yl)amino)hexyl)piperidin-4-yl)-1H-pyrazol-4-yl)pyrazine-2-carboxylate], the Kd at MLKL was 7.9 nM.

`Nc1ncc(-c2cnn(C3CCNCC3)c2)nc1C(=O)OC(C(=O)Nc1ccc(F)cc1)c1ccc(F)cc1` (centres unmarked) [TDH-489, 1-(4-fluorophenyl)-2-((4-fluorophenyl)amino)-2-oxoethyl 3-amino-6-(1-(piperidin-4-yl)-1H-pyrazol-4-yl)pyrazine-2-carboxylate hydrochloride]: on MLKL, binding was put at a Kd of 1.2 nM. Against the preceding compound, the Kd is about 6.6-fold lower. `Nc1nccnc1C(=O)O[C@@H](C(=O)Nc1ccc(F)cc1)c1ccccc1` [TDH-001, (R)-2-((4-fluorophenyl)amino)-2-oxo-1-phenylethyl 3-aminopyrazine-2-carboxylate] had a Kd on MLKL of 94 nM. Take `CN(C(=O)c1nc(-c2cnn(C3CCNCC3)c2)cnc1N)[C@@H](C(=O)Nc1ccc(F)cc1)c1ccccc1` [TDH-490, (R)-3-amino-N-(2-((4-fluorophenyl)amino)-2-oxo-1-phenylethyl)-N-methyl-6-(1-(piperidin-4-yl)-1H-pyrazol-4-yl)pyrazine-2-carboxamide hydrochloride]: at MLKL, binding was characterised by a dissociation constant (Kd) of 400 nM. On MLKL, `Nc1ncc(-c2cnn(C3CCNCC3)c2)nc1C(=O)O[C@@H](C(=O)Nc1ccc(C(F)(F)F)cc1)c1ccccc1` [TDH-459, (R)-2-oxo-1-phenyl-2-((4-(trifluoromethyl)phenyl)amino)ethyl 3-amino-6-(1-(piperidin-4-yl)-1H-pyrazol-4-yl)pyrazine-2-carboxylate hydrochloride] came in with a Kd of 6.5 nM. Against the preceding compound, the Kd is about 62-fold lower. On MLKL, `CC(=O)N1CCC(n2cc(-c3cnc(N)c(C(=O)O[C@@H](C(=O)Nc4ccc(F)cc4)c4ccc(Cl)cc4)n3)cn2)CC1` [TDH-325, (R)-1-(4-chlorophenyl)-2-((4-fluorophenyl)amino)-2-oxoethyl 6-(1-(1-acetylpiperidin-4-yl)-1H-pyrazol-4-yl)-3-aminopyrazine-2-carboxylate] displayed a Kd of 1.1 nM.

Turning to `Nc1ncc(C2=CCN(C(=O)COCCOCCNc3ccc4c(c3)C(=O)N(C3CCC(=O)NC3=O)C4=O)CC2)cc1C(=O)O[C@@H](C(=O)Nc1ccc(F)cc1)c1ccccc1` (stereo partly drawn) [TDH-083, (R)-2-((4-fluorophenyl)amino)-2-oxo-1-phenylethyl 6-amino-1′-(2-(2-(2-((2-(2,6-dioxopiperidin-3-yl)-1,3-dioxoisoindolin-5-yl)amino)ethoxy)ethoxy)acetyl)-1′,2′,3′,6′-tetrahydro-[3,4′-bipyridine]-5-carboxylate], binding on MLKL was characterised by a dissociation constant (Kd) of 84 nM. At MLKL, `Cc1ccc([C@@H](OC(=O)c2nc(-c3cnn(C4CCNCC4)c3)cnc2N)C(=O)Nc2ccc(F)cc2)cc1` [TDH-320, (R)-2-((4-fluorophenyl)amino)-2-oxo-1-(p-tolyl)ethyl 3-amino-6-(1-(piperidin-4-yl)-1H-pyrazol-4-yl)pyrazine-2-carboxylate hydrochloride] displayed a Kd of 1.7 nM. Same read-out and setting: the figure for `CN(C)c1ccc(NC(=O)[C@H](OC(=O)c2nc(-c3cnn(C4CCNCC4)c3)cnc2N)c2ccccc2)cc1` [TDH-470, (R)-2-((4-(dimethylamino)phenyl)amino)-2-oxo-1-phenylethyl 3-amino-6-(1-(piperidin-4-yl)-1H-pyrazol-4-yl)pyrazine-2-carboxylate hydrochloride] is 3.8 nM; for `Nc1ncc(C2=CCN(C(=O)COCCOCCNC(=O)C3CCN(c4ccc5c(c4)C(=O)N(C4CCC(=O)NC4=O)C5=O)CC3)CC2)cc1C(=O)O[C@@H](C(=O)Nc1ccc(F)cc1)c1ccccc1` (stereo partly drawn) [TDH-089, (R)-2-((4-fluorophenyl)amino)-2-oxo-1-phenylethyl 6-amino-1′-(2-(2-(2-(1-(2-(2,6-dioxopiperidin-3-yl)-1,3-dioxoisoindolin-5-yl)piperidine-4-carboxamido)ethoxy)ethoxy)acetyl)-1′,2′,3′,6′-tetrahydro-[3,4′-bipyridine]-5-carboxylate] it is 56 nM; for `Nc1ncc(C2=CCN(C(=O)CCCCCNC(=O)C3CCN(c4cccc5c4C(=O)N(C4CCC(=O)NC4=O)C5=O)CC3)CC2)cc1C(=O)O[C@@H](C(=O)Nc1ccc(F)cc1)c1ccccc1` (stereo partly drawn) [TDH-080, (R)-2-((4-fluorophenyl)amino)-2-oxo-1-phenylethyl 6-amino-1′-(6-(1-(2-(2,6-dioxopiperidin-3-yl)-1,3-dioxoisoindolin-4-yl)piperidine-4-carboxamido)hexanoyl)-1′,2′,3′,6′-tetrahydro-[3,4′-bipyridine]-5-carboxylate] it is 120 nM. Compound `Nc1ncc(C2=CCNCC2)cc1C(=O)O[C@@H](C(=O)Nc1ccc(F)cc1)c1ccccc1` [TDH-070, (R)-2-((4-fluorophenyl)amino)-2-oxo-1-phenylethyl 6-amino-1′,2′,3′,6′-tetrahydro-[3,4′-bipyridine]-5-carboxylate hydrochloride] came in with a Kd at MLKL of 110 nM. Take `Nc1ncc(Br)nc1C(=O)N[C@H](C(=O)Nc1ccc(F)cc1)c1ccccc1` [TDH-067, (S)-3-amino-6-bromo-N-(2-((4-fluorophenyl)amino)-2-oxo-1-phenylethyl)pyrazine-2-carboxamide]: the Kd on MLKL is above 10000 nM. The same measure, in the same setting: then `CC(C)(C)OC(=O)N1CC=C(c2cnc(N)c(C(=O)O[C@@H](C(=O)Nc3ccc(F)cc3)c3ccccc3)c2)CC1` [TDH-066, (R)-1′-(tert-butyl) 5-(2-((4-fluorophenyl)amino)-2-oxo-1-phenylethyl) 6-amino-3′,6′-dihydro-[3,4′-bipyridine]-1′,5(2′H)-dicarboxylate], with 650 nM. Regarding `Nc1ncc(C2=CCN(C(=O)CCCCCNC(=O)C3CN(c4cccc5c4C(=O)N(C4CCC(=O)NC4=O)C5=O)C3)CC2)cc1C(=O)O[C@@H](C(=O)Nc1ccc(F)cc1)c1ccccc1` (stereo partly drawn) [TDH-078, (R)-2-((4-fluorophenyl)amino)-2-oxo-1-phenylethyl 6-amino-1′-(6-(1-(2-(2,6-dioxopiperidin-3-yl)-1,3-dioxoisoindolin-4-yl)azetidine-3-carboxamido)hexanoyl)-1′,2′,3′,6′-tetrahydro-[3,4′-bipyridine]-5-carboxylate], the affinity on MLKL, expressed as Kd, was 90 nM. With `Nc1ncc(C2=CCN(C(=O)COCCOCCNc3cccc4c3C(=O)N(C3CCC(=O)NC3=O)C4=O)CC2)cc1C(=O)O[C@@H](C(=O)Nc1ccc(F)cc1)c1ccccc1` (stereo partly drawn) [TDH-082, (R)-2-((4-fluorophenyl)amino)-2-oxo-1-phenylethyl 6-amino-1′-(2-(2-(2-((2-(2,6-dioxopiperidin-3-yl)-1,3-dioxoisoindolin-4-yl)amino)ethoxy)ethoxy)acetyl)-1′,2′,3′,6′-tetrahydro-[3,4′-bipyridine]-5-carboxylate], the Kd on MLKL worked out at 70 nM.

For the compound `Nc1ncc(-c2cnn(C3CCNCC3)c2)nc1C(=O)O[C@@H](C(=O)Nc1ccncc1)c1ccccc1` [TDH-479, (R)-2-oxo-1-phenyl-2-(pyridin-4-ylamino)ethyl 3-amino-6-(1-(piperidin-4-yl)-1H-pyrazol-4-yl)pyrazine-2-carboxylate--2,2,2-trifluoroacetaldehyde], on MLKL, the Kd was determined as 5.6 nM.

Turning to `Nc1nccnc1C(=O)N[C@@H](C(=O)Nc1ccc(F)cc1)c1ccccc1` [TDH-106, (R)-3-amino-N-(2-((4-fluorophenyl)amino)-2-oxo-1-phenylethyl)pyrazine-2-carboxamide], the “Necroptosis inhibition assay (Rescue %) 1 μM” value with FADD−/− Jurkat cells (compound 1 μM) is 13.76%. Moreover, in the assay with FADD−/− Jurkat cells (compound 10 μM), the “Necroptosis inhibition assay (Rescue %) 10 μM” value is listed as 34.33%.

What is called Kd is a measure of binding affinity in units of concentration. Lower therefore signals higher affinity.

The record behind these values is patent publication US20240252488A1 (KOREA RESEARCH INSTITUTE OF CHEMICAL TECHNOLOGY, priority 2020, published 2024).
